Data published in patent US12533439B2, “Antibacterial wound treatments with clot-promoting properties” (University of Georgia Research Foundation, Inc., priority 2019, dated 2026).

Assays:
[1] = test system: 3T3 mouse fibroblast cells; test: WST-8 (CCK-8) cell viability assay on dressing leachates; type: cell-based; conditions: 24-hour leachate
Excerpt: The manufacturer's (Sigma-Aldrich) protocol was followed while using CCK-8 kit which utilizes highly water-soluble tetrazolium salt. In the live cells, WST-8 [2-(2-methoxy-4-nitrophenyl)-3-(4-nitrophenyl)-5-(2,4-disulfophenyl)-2H-tetrazolium monosodium salt] is reduced by dehydrogenases to give formazan (an orange-colored product), which can be detected at 450 nm. This means that a noncytotoxic material should generate a higher level of formazan than a relatively cytotoxic material because of WST-8 reduction. To obtain the leachate, samples weighing 10 mg each were added to 10 ml to in the DMEM medium for 24 hours at 37° C. The leachate was later used to grow the cells.
Seeding of cells. A culture of the fibroblast cells was grown in a 75 cm2 T-flask with Dulbecco modified Eagle's medium (DMEM) with 4.5 g/L-glutamine, 4.5 g/L glucose, 1% penicillin-streptomycin and 10% fetal bovine serum (FBS) after thawing a cryopreserved vial of fibroblast cells.^11 The cells could proliferate in an incubator which provided a physiological condition for their growth (5% CO2, 37° C.) until the confluence reached around 80-90%. […] The formula below was used to calculate cell viability.^12
To ensure that the components of wound dressing—CarboSil®, SNAP, TXA, and propolis—are not cytotoxic to the mammalian cells, a 24-hour cytotoxicity study was conducted on mouse fibroblast cells.

[2] = TXA administered within 1 hour of injury; cited from earlier work

| SMILES | cytotoxicity (relative cell viability) [1] | reduction in deaths [2] [%] |
| --- | --- | --- |
| CC(=O)N[C@H](C(=O)O)C(C)(C)SN=O (racemic) [SNAP, S-nitroso-N-acetylpenicillamine] | non-cytotoxic |  |
| NC[C@H]1CC[C@H](C(=O)O)CC1 [TXA, tranexamic acid] |  | 32 |
